What was measured:
Type in all cases: cell-based
[1] = test system: HSV-I; assay: Binding of [3H]HSV-I to Vero cells; conditions: virus at 2 p.f.u./cell; n-docosanol 15 mM
From the text: Attachment of HSV-I to specific cell surface receptors is unaffected in n-docosanol-treated cells. Previous studies have verified that attachment of HSV-1 to specific cell surface receptors is unaffected in n-docosanol-treated cells. […] Heparin inhibited this interaction 96%.

[2] = test system: HSV-1(KOS)gL86; assay: Entry of HSV-1(KOS)gL86 into HEp-2 cells (beta-galactosidase, OD600)
Experimental: After attachment of HEp2 cells to culture wells, n-docosanol-vehicle, vehicle alone, or no agent (control) was added. Five to six hours after infection, the cells were processed, X-gal was added, and the absorbance at 600 nm was determined.
Twenty-four hours before infection, cultured cells were seeded into 24-well (16-mm) plates at 2.5×10^6 cells/well in 0.5 ml cDMEM supplemented with 10% fetal bovine serum (FES). After cell attachment (4-6 h later) heparin, n-docosanol-surfactant, or surfactant alone was added to the cells in 0.5 ml DMEM/10% FES. The agents were dissolved in the medium at two times the desired final concentration. For infection, 0.7 ml of medium was removed from each well and 25 μl of virus suspension was added to the remaining 0.3 ml to give a virus dose of at least 20 p.f.u./cell The plates were rocked at 37° C. for 3 h and then put in a 37° C. […]
At 5-6 h after infection, the cells were fixed with PES containing 2% formaldehyde and 0.2% glutaraldehyde, washed, then permeabilized with 0.02% NP-40, 0.01% deoxycholate and 2 mM MgCl2. […] To quantify the amount of color in each well the glycerol was removed from all wells that were then washed 3× with distilled H2O. DMSO (0.6 ml) was added to solubilize the dye and, after transferring 100 μl of each sample well from the 24-well plate to a 96-well plate, the OD600 was recorded using a 96-well plate reader. […]

[3] = test system: wild-type HSV-2; assay: Plaque formation by wild-type HSV-2 in Vero cells; conditions: FIG. 7, Panel A
Experimental: (§1) FIG. 7 depicts data showing that n-docosanol inhibits acyclovir-resistant HSV-2. Vero cells were cultured in 35-mm wells (6×10^5 cells per well) in medium alone (=none) or in the presence of the indicated concentration of acyclovir, n-docosanol-Pluronic F-68 suspension or control suspension (Pluronic F-68 only). The cultures were inoculated 24 hours later with 150 PFU of either wild-type HSV-2 or an acyclovir-resistant laboratory isolate from the wild-type HSV-2 that was plaque purified and passaged in 20 μg/ml acyclovir 44 hours later, the plates were incubated, fixed, stained, and scored for numbers of plaques. The data presented are means of plaques scored from duplicate cultures. The percent inhibition observed in cultures treated with acyclovir or n-docosanol relative to untreated control cultures is denoted in parentheses.

[4] = test system: acyclovir-resistant HSV-2; assay: Plaque formation by acyclovir-resistant HSV-2 in Vero cells; conditions: FIG. 7, Panel B
Experimental: as §1

| Molecule | inhibition of [3H]HSV-I binding [1] | concentration at which inhibition appeared to be complete ([2]; examined between 1 and 10 μg/ml) | inhibition of the beta-galactosidase signal [2] | inhibition of plaque formation [3] | inhibition of plaque formation [4] |
| --- | --- | --- | --- | --- | --- |
| Heparin [reference compound] | 96% | 6 µg/mL | – | – | – |
| Nc1nc2c(ncn2COCCO)c(=O)[nH]1 [acyclovir, reference compound] | – | – | not inhibited | inhibit plaque formation by wild type HSV-2 equally | not inhibited |

Source: patent US20040033982A1, “Viral inhibition by n-docosanol” (priority 2001, published 2004)
